Assay results: patent US8912206B2, “Pyrimidine ether derivatives and methods of use thereof” (Merck Sharp & Dohme Corp., priority 2009, dated 2014)

Biological target: T1, human GPR119 (Homo sapiens, UniProt Q8TDV5)
T1 construct: expressed in transfected cells; host or cells: HEK293
T1 sequence (Q8TDV5 1-335): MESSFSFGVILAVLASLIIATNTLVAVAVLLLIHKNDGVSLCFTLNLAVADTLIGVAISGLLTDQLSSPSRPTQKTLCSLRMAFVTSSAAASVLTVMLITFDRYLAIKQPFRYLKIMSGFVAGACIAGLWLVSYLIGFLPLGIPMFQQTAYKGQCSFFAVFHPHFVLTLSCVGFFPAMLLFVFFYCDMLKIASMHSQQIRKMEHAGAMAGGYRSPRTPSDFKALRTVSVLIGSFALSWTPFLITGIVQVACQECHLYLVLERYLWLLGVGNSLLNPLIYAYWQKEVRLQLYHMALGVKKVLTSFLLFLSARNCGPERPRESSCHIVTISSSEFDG
Test: cAMP assay (LANCE cAMP kit), activation of GPR119
Type: cell-based
Conditions: HEK293 cells expressing human GPR119, 30 minutes incubation
Description: The ability of illustrative compounds of the invention to activate GPR119 and stimulate increases in cAMP levels was determined using the LANCE™ cAMP kit (Perkin Elmer). HEK293 cells expressing human GPR119 were maintained in culture flasks at 37° C./5% CO2 in DMEM containing 10% fetal bovine serum, 100 U/ml Pen/Strep, and 0.5 mg/ml geneticin. The media was changed to Optimem and cells were incubated for about 15 hours at 37° C./5% CO2. The Optimem was then aspirated and the cells were removed from the flasks using room temperature Hank's balanced saline solution (HBSS). The cells were pelleted using centrifugation (1300 rpm, 7 minutes, room temperature), then resuspended in stimulation buffer (HBSS, 0.1% BSA, 5 mM HEPES, 15 μM RO-20) at 2.5×10^6 cells/mL. Alexa Fluor 647-anti cAMP antibody (1:100) was then added to the cell suspension and incubated for 30 minutes. A representative Pyrimidine Ether Derivative (6 μl at 2× concentration) in stimulation buffer containing 2% DMSO were then added to white 384 well Matrix plates. Cell suspension mix (6 μl) was added to each well and incubated with the Pyrimidine Ether Derivative for 30 minutes. A cAMP standard curve was also created in each assay according to the kit protocol. Standard concentrations of cAMP in stimulation buffer (6 μl) were added to white 384 well plates. Subsequently, 6 μl of 1:100 anti-cAMP antibody was added to each well. Following the 30 minute incubation period, 12 μl of detection mix (included in kit) was added to all wells and incubated for 2-3 hours at room temperature. Fluorescence was detected on the plates using an Envision instrument. The level of cAMP in each well is determined by extrapolation from the cAMP standard curve.

SMILES	EC50 [µM]
CC(C)(C)OC(=O)N1CCC(Oc2ncnc(OC3C4COCC3CN(C(=O)OC3(C)CC3)C4)c2F)CC1 (stereo not drawn) [Compound 1]	0.5 to 1
CC1(OC(=O)N2CC3COCC(C2)C3Oc2ncnc(OC3CCN(S(C)(=O)=O)CC3)c2F)CC1 (stereo not drawn) [Compound 2]	0.1 to 0.2
CC1(OC(=O)N2CC3COCC(C2)C3Oc2ncnc(OC3CCN(S(=O)(=O)CCC(F)(F)F)CC3)c2F)CC1 (stereo not drawn) [Compound 3]	< 0.1
CC1(OC(=O)N2CC3COCC(C2)C3Oc2ncnc(OC3CCN(S(=O)(=O)C4CC4)CC3)c2F)CC1 (stereo not drawn) [Compound 4]	0.1 to 0.2
CC(C)S(=O)(=O)N1CCC(Oc2ncnc(OC3C4COCC3CN(C(=O)OC3(C)CC3)C4)c2F)CC1 (stereo not drawn) [Compound 5]	< 0.1
CC1(OC(=O)N2CC3COCC(C2)C3Oc2ncnc(OC3CCN(S(=O)(=O)C(F)(F)F)CC3)c2F)CC1 (stereo not drawn) [Compound 6]	0.5 to 1
CC1(OC(=O)N2CC3COCC(C2)C3Oc2ncnc(OC3CCN(S(=O)(=O)C4CCCC4)CC3)c2F)CC1 (stereo not drawn) [Compound 7]	0.1 to 0.2
COCCS(=O)(=O)N1CCC(Oc2ncnc(OC3C4COCC3CN(C(=O)OC3(C)CC3)C4)c2F)CC1 (stereo not drawn) [Compound 8]	0.1 to 0.2
CC(C)C(=O)N1CCC(Oc2ncnc(OC3C4COCC3CN(C(=O)OC3(C)CC3)C4)c2F)CC1 (stereo not drawn) [Compound 9]	0.5 to 1
CS(=O)(=O)N1CCC(Oc2ncnc(OC3C4COCC3CN(c3ncc(Cl)cn3)C4)c2F)CC1 (stereo not drawn) [Compound 10]	< 0.1
CCCS(=O)(=O)N1CCC(Oc2ncnc(OC3C4COCC3CN(C(=O)OC3(C)CC3)C4)c2F)CC1 (stereo not drawn) [Compound 11]	< 0.1
CCS(=O)(=O)N1CCC(Oc2ncnc(OC3C4COCC3CN(C(=O)OC3(C)CC3)C4)c2F)CC1 (stereo not drawn) [Compound 12]	< 0.1
